Common to all, as to assay: Antibacterial spectra, MIC
Type in all cases: cell-based

For test [1], the system named is Peptostreptococcus anaerobius KYA 27337. The settings on record: KYA27337, 10^6 cells/ml, Gram +, read-out: MIC.
A further test concerns P. maltophilia GIFU 2491. As to conditions: Stenotrophomonas maltophilia, GIFU2491; 10^6 cells/ml; Gram -; read-out: MIC.
In the next test the test system is B. vulgatus KYA 29327. As to conditions: Phocaeicola vulgatus, KYA29327; 10^6 cells/ml; Gram -; read-out: MIC.
Test [2] deals with S. aureus IID 670 (Terajima). As to conditions: Staphylococcus aureus, IID670; 10^6 cells/ml; Gram +; read-out: MIC.
A further test concerns Bacilus subtilis PCI 219. As to conditions: Bacillus subtilis, PCI219.
A further test concerns S. pneumoniae IID 552. The settings on record: Streptococcus pneumoniae, IID552; 10^6 cells/ml; Gram +; read-out: MIC.
Test [3] has as its system Salmonella enteritidis IID 604. As to conditions: Salmonella enterica; 10^6 cells/ml; Gram -; read-out: MIC.
For another test, the system named is P. cepacia GIFU 518. As to conditions: Burkholderia cepacia, GIFU518; 10^6 cells/ml; Gram -; read-out: MIC.
In a further test the test system is F. varium KYA 8501. The settings on record: Fusobacterium varium, KYA8501; 10^6 cells/ml; Gram -; read-out: MIC.
The test system of the next test is P. aeruginosa IFO 12689. The settings on record: Pseudomonas aeruginosa, IFO12689; 10^6 cells/ml; Gram -; read-out: MIC.

The source of these data is patent US5043450A, “8-alkoxyquinolonecarboxylic acid and salts thereof” (priority 1986, dated 1991).

The structures appear in SMILES notation. In brackets after ≈: the same amount, converted by molar mass.

On to `CCOc1c(N2CCNCC2)c(F)cc2c(=O)c(C(=O)O)cn(C3CC3)c12` [Exp. 18, 1-cyclopropyl-6-fluoro-1,4-dihydro-8-ethoxy-4-oxo-7-(1-piperazinyl)-3-quinolinecarboxylic acid], for which the minimum inhibitory concentration (MIC) in [1] is 3.13 µg/mL (≈ 8.34 µM); with P. maltophilia GIFU 2491 it was 0.39 µg/mL (≈ 1.04 µM); in the test with B. vulgatus KYA 29327 it was 12.5 µg/mL (≈ 33.3 µM); in test [2], 0.39 µg/mL (≈ 1.04 µM); against Bacilus subtilis PCI 219, no more than 0.05 µg/mL; in the test with S. pneumoniae IID 552, 0.78 µg/mL (≈ 2.08 µM). The minimum inhibitory concentration (MIC) in test [3] is 0.1 µg/mL (≈ 0.266 µM); in the test on P. cepacia GIFU 518 it was 3.13 µg/mL (≈ 8.34 µM); in the test on F. varium KYA 8501, 25 µg/mL (≈ 66.6 µM); with P. aeruginosa IFO 12689, 3.13 µg/mL (≈ 8.34 µM).

One may read the MIC as the lowest concentration that inhibits growth of the organism.
